Measured values reported in PMC12274840 (The Journal of Biological Chemistry, 2025).
Values after ≈ are worked out from the molar mass of the structure shown. Read-outs that look alike come from different tables or passages of the source.

Legend:
[1] = test system: E. coli KA797 cells carrying BlaC position 105 library; format: cell-based, Escherichia coli; details: ceftriaxone; for Fi CEF AVG: average of replicates; for Fi CEF 1: replicate 1
[2] = test system: E. coli KA797 cells carrying TEM-1 position 105 library; format: cell-based; details: for Fi CEF AVG: average of replicates
[3] = test system: E. coli KA797 cells carrying pUK21 with NmcA (pelB/Sec); test: microbe, parasite or virus in culture; format: cell-based; details: Escherichia coli, antibiotic alone
[4] = test system: E. coli KA797 cells carrying pUK21 with BlaC WT (Tat); test: microbe, parasite or virus in culture; format: cell-based; details: Escherichia coli, antibiotic alone
[5] = test system: E. coli KA797 cells carrying NmcA position 105 library; format: cell-based
[6] = test system: E. coli KA797 cells carrying pUK21 vector without the β-lactamase gene; test: microbe, parasite or virus in culture; format: cell-based; details: Escherichia coli
[7] = test system: E. coli KA797 cells carrying CTX-M-14 position 105 library; format: cell-based
[8] = test system: E. coli KA797 cells carrying pUK21 with CTX-M-14 WT (Tat); test: microbe, parasite or virus in culture; format: cell-based; details: Escherichia coli, antibiotic alone
[9] = test system: CC1(C)S[C@@H]2[C@H](NC(=O)C(C(=O)O)c3ccccc3)C(=O)N2[C@H]1C(=O)O; test: purified protein, by the assay type; details: pH 6.4; 25.0 °C
[10] = test system: O=C(Cc1cccs1)N[C@@H]1C(=O)N2C(C(=O)O)=C(/C=C/c3ccc([N+](=O)[O-])cc3[N+](=O)[O-])CS[C@H]12; test: purified protein, by the assay type; details: pH 6.4; 25.0 °C
[11] = test system: CC1(C)S[C@@H]2[C@H](NC(=O)C(C(=O)O)c3ccccc3)C(=O)N2[C@H]1C(=O)O; test: purified protein, by the assay type; details: pH 6.4; 25.0 °C; remark: listed apart in the source
[12] = test system: CC1(C)S[C@@H]2[C@H](NC(=O)[C@H](N)c3ccccc3)C(=O)N2[C@H]1C(=O)O; test: purified protein, by the assay type; details: pH 6.4; 25.0 °C

CO/N=C(\C(=O)N[C@@H]1C(=O)N2C(C(=O)O)=C(CSc3nc(=O)c(=O)[nH]n3C)CS[C@H]12)c1csc(N)n1 [ceftriaxone]
Fi CEF AVG ([1]; AA 105 Arg): 0.035
Fi CEF 1 ([1]; AA 105 Arg): 0.040
Fi CEF 2 ([1]; AA 105 Arg, replicate 2): 0.029
Fi CEF AVG ([1]; AA 105 Cys): 0.035
Fi CEF 1 ([1]; AA 105 Cys): 0.020
Fi CEF 2 ([1]; AA 105 Cys, replicate 2): 0.049
Fi CEF 2 ([1]; AA 105 Gly, replicate 2): -0.00224
Fi CEF AVG ([1]; AA 105 His): 0.032
Fi CEF 1 ([1]; AA 105 His): 0.007
Fi CEF 2 ([1]; AA 105 His, replicate 2): 0.057
Fi CEF AVG ([1]; AA 105 Ile (WT)): 0.000
Fi CEF 1 ([1]; AA 105 Ile (WT)): 0.000
Fi CEF 2 ([1]; AA 105 Ile (WT), replicate 2): 0.000
Fi CEF AVG ([1]; AA 105 Leu): 0.017
Fi CEF 1 ([1]; AA 105 Leu): 0.023
Fi CEF 2 ([1]; AA 105 Leu, replicate 2): 0.011
Fi CEF AVG ([1]; AA 105 Lys): -0.009
Fi CEF 2 ([1]; AA 105 Lys, replicate 2): -0.009
Fi CEF AVG ([1]; AA 105 Met): 0.036
Fi CEF 1 ([1]; AA 105 Met): 0.064
Fi CEF 2 ([1]; AA 105 Met, replicate 2): 0.008
Fi CEF AVG ([1]; AA 105 Phe): 0.008
Fi CEF 1 ([1]; AA 105 Phe): -0.000834
Fi CEF 2 ([1]; AA 105 Phe, replicate 2): 0.017
Fi CEF AVG ([1]; AA 105 Ser): -0.011
Fi CEF 1 ([1]; AA 105 Ser): -0.00266
Fi CEF AVG ([1]; AA 105 Trp): 0.038
Fi CEF 1 ([1]; AA 105 Trp): 0.042
Fi CEF 2 ([1]; AA 105 Trp, replicate 2): 0.034
Fi CEF 1 ([1]; AA 105 Val): 0.004
WT abs Fi 2 ([1]; WT (Ile 105) absolute fitness, replicate 2): -0.008
Fi CEF 2 ([2]; AA 105 Ala, replicate 2): -0.112
Fi CEF 3 ([2]; AA 105 Ala, replicate 3): 0.013
Fi CEF 2 ([2]; AA 105 Asn, replicate 2): -0.107
Fi CEF 3 ([2]; AA 105 Asn, replicate 3): -0.034
Fi CEF 1 ([2]; AA 105 Asp, replicate 1): 0.596
Fi CEF AVG ([2]; AA 105 Cys): 0.087
Fi CEF 1 ([2]; AA 105 Cys, replicate 1): 0.906
Fi CEF AVG ([2]; AA 105 Gln): 0.078
Fi CEF 1 ([2]; AA 105 Gln, replicate 1): 0.356
Fi CEF 2 ([2]; AA 105 Gln, replicate 2): -0.028
Fi CEF 3 ([2]; AA 105 Gln, replicate 3): -0.095
Fi CEF 1 ([2]; AA 105 Glu, replicate 1): 0.340
Fi CEF 2 ([2]; AA 105 Glu, replicate 2): -0.099
Fi CEF AVG ([2]; AA 105 Gly): 0.067
Fi CEF 1 ([2]; AA 105 Gly, replicate 1): 0.338
Fi CEF 2 ([2]; AA 105 Gly, replicate 2): -0.077
Fi CEF 3 ([2]; AA 105 Gly, replicate 3): -0.061
Fi CEF AVG ([2]; AA 105 Leu): 0.072
Fi CEF 1 ([2]; AA 105 Leu, replicate 1): 0.332
Fi CEF 2 ([2]; AA 105 Leu, replicate 2): 0.047
Fi CEF AVG ([2]; AA 105 Lys): 0.057
Fi CEF 3 ([2]; AA 105 Lys, replicate 3): 0.102
Fi CEF AVG ([2]; AA 105 Phe): 0.182
Fi CEF 2 ([2]; AA 105 Phe, replicate 2): 0.022
Fi CEF 3 ([2]; AA 105 Phe, replicate 3): 0.240
Fi CEF AVG ([2]; AA 105 Pro): 0.130
Fi CEF 1 ([2]; AA 105 Pro, replicate 1): 0.375
Fi CEF 2 ([2]; AA 105 Pro, replicate 2): -0.060
Fi CEF 3 ([2]; AA 105 Pro, replicate 3): 0.074
Fi CEF AVG ([2]; AA 105 Ser): 0.105
Fi CEF 3 ([2]; AA 105 Ser, replicate 3): 0.208
Fi CEF AVG ([2]; AA 105 Trp): 0.125
Fi CEF 1 ([2]; AA 105 Trp, replicate 1): 0.969
Fi CEF 2 ([2]; AA 105 Tyr, replicate 2): 0.000
Fi CEF 3 ([2]; AA 105 Tyr, replicate 3): 0.000
WT abs Fi 1 ([2]; absolute fitness of TEM-1 WT, CEF, replicate 1): -0.283
WT abs Fi 2 ([2]; absolute fitness of TEM-1 WT, CEF, replicate 2): 0.276
WT abs Fi 3 ([2]; absolute fitness of TEM-1 WT, CEF, replicate 3): 0.176
MIC [3]: 0.2 µg/mL (≈ 0.361 µM)
MIC [4]: 0.2 µg/mL (≈ 0.361 µM)
Fi AVG (average fitness of replicates) ([5]; NmcA AA 105 Asp): 0.078
Fi AVG (average fitness of replicates) ([5]; NmcA AA 105 Cys): 0.046
Fi AVG (average fitness of replicates) ([5]; NmcA AA 105 Glu): 0.057
Fi AVG (average fitness of replicates) ([5]; NmcA AA 105 Lys): 0.077
Fi AVG (average fitness of replicates) ([5]; NmcA AA 105 Phe): 0.046
Fi AVG (average fitness of replicates) ([5]; NmcA AA 105 Pro): 0.055
Fi AVG (average fitness of replicates) ([5]; NmcA AA 105 Trp): 0.226
Significance of average fitness ([5]; NmcA AA 105 Trp): +
WT abs Fi 1 (absolute fitness) ([5]; NmcA WT, replicate 1): 0.029
WT abs Fi 2 (absolute fitness) ([5]; NmcA WT, replicate 2): -0.00378
WT abs Fi 3 (absolute fitness) ([5]; NmcA WT, replicate 3): -0.101
MIC [6]: 0.1 µg/mL (≈ 0.18 µM)
Significance of average fitness ([7]; CTX-M-14 AA 105 Ala): -
Significance of average fitness ([7]; CTX-M-14 AA 105 Arg): -
Significance of average fitness ([7]; CTX-M-14 AA 105 Asn): -
Significance of average fitness ([7]; CTX-M-14 AA 105 Asp): -
Significance of average fitness ([7]; CTX-M-14 AA 105 Cys): -
Significance of average fitness ([7]; CTX-M-14 AA 105 Gln): -
Significance of average fitness ([7]; CTX-M-14 AA 105 Glu): -
Significance of average fitness ([7]; CTX-M-14 AA 105 Gly): -
Significance of average fitness ([7]; CTX-M-14 AA 105 His): -
Significance of average fitness ([7]; CTX-M-14 AA 105 Ile): -
Significance of average fitness ([7]; CTX-M-14 AA 105 Leu): -
Significance of average fitness ([7]; CTX-M-14 AA 105 Lys): -
Significance of average fitness ([7]; CTX-M-14 AA 105 Met): -
Significance of average fitness ([7]; CTX-M-14 AA 105 Phe): -
Significance of average fitness ([7]; CTX-M-14 AA 105 Pro): -
Significance of average fitness ([7]; CTX-M-14 AA 105 Ser): -
Significance of average fitness ([7]; CTX-M-14 AA 105 Thr): -
Significance of average fitness ([7]; CTX-M-14 AA 105 Trp): +
Significance of average fitness ([7]; CTX-M-14 AA 105 Val): -
WT abs Fi 1 (absolute fitness of wild type, Replicate 1) ([7]; CTX-M-14 WT (Tyr 105)): 0.241
WT abs Fi 2 (absolute fitness of wild type, Replicate 2) ([7]; CTX-M-14 WT (Tyr 105)): 0.256
MIC [8]: 1600 µg/mL (≈ 2890 µM)

(Escherichia coli)
Km [9]: 10.0 ± 0.7 µM
kcat [9]: 92 ± 2 s⁻¹
kcat/Km [9]: 9.15e+06 ± 660000 M⁻¹ s⁻¹
Km [10]: 79 ± 1 µM
kcat [10]: 576 ± 5 s⁻¹
kcat/Km [10]: 7.31e+06 ± 80000 M⁻¹ s⁻¹
Km [11]: 20 ± 2 µM
kcat [11]: 31 ± 2 s⁻¹
kcat/Km [11]: 1.55e+06 ± 180000 M⁻¹ s⁻¹
Km [12]: 76 ± 2 µM
kcat [12]: 103 ± 1 s⁻¹
kcat/Km [12]: 1.36e+06 ± 80000 M⁻¹ s⁻¹
